From ChEMBL document CHEMBL3880421, “Indazole compounds and pharmaceutical compositions for inhibiting protein kinases, and methods for their use” (2003)

What was measured:
[1] = Antiproliferative activity against VEGF-stimulated HUVEC cells assessed as reduction in cell viability at 2 nM preincubated for 1 hr followed by addition of VEGF measured after 72 hrs by MTT assay; type: functional; conditions: Homo sapiens
[2] = Antiproliferative activity against VEGF-stimulated HUVEC cells assessed as reduction in cell viability at 0.5 nM preincubated for 1 hr followed by addition of VEGF measured after 72 hrs by MTT assay; type: functional; conditions: Homo sapiens

SMILES | inhibition at 0.002 µM [1] | inhibition at 0.0005 µM [2]
O=C(NCC(c1ccccc1)c1ccccc1)c1ccccc1Nc1ccc2c(/C=C/c3ccccn3)n[nH]c2c1 | 15% | 11%
CC(C)CCC(C)NC(=O)c1ccccc1Nc1ccc2c(/C=C/c3ccccn3)n[nH]c2c1 (stereo not drawn) | 44% | 6%
O=C(NOc1ccccc1)c1ccccc1Nc1ccc2c(/C=C/c3ccccn3)n[nH]c2c1 | 80% | 27%
O=C(NOCc1ccccc1)c1ccccc1Nc1ccc2c(/C=C/c3ccccn3)n[nH]c2c1 | 101 to 111% | 70 to 74%
CCOC(CCNC(=O)c1ccccc1Nc1ccc2c(/C=C/c3ccccn3)n[nH]c2c1)OCC | 70% | 30%
O=C(NC1CCCCCCC1)c1ccccc1Nc1ccc2c(/C=C/c3ccccn3)n[nH]c2c1 | 60% | 14%
CC(C)(C)OC(=O)NCCNC(=O)c1ccccc1Nc1ccc2c(/C=C/c3ccccn3)n[nH]c2c1 | 60% | 78%
COC[C@H]1CCCN1NC(=O)c1ccccc1Nc1ccc2c(/C=C/c3ccccn3)n[nH]c2c1 | 11% | 18%
O=C(NC1CCC1)c1ccccc1Nc1ccc2c(/C=C/c3ccccn3)n[nH]c2c1 | 80% | 42%
CCCCN(CC)CCNC(=O)c1ccccc1Nc1ccc2c(/C=C/c3ccccn3)n[nH]c2c1 | 6% | 2%
COCC(C)NC(=O)c1ccccc1Nc1ccc2c(/C=C/c3ccccn3)n[nH]c2c1 (stereo not drawn) | 32% | 18%
CCC(COC)NC(=O)c1ccccc1Nc1ccc2c(/C=C/c3ccccn3)n[nH]c2c1 (stereo not drawn) | 65% | 1%
CC(C)C(C)NC(=O)c1ccccc1Nc1ccc2c(/C=C/c3ccccn3)n[nH]c2c1 (stereo not drawn) | 55% | 19%
CN(C)CCNC(=O)c1ccccc1Nc1ccc2c(/C=C/c3ccccn3)n[nH]c2c1 | 10% | 20%
N=C(N)CNC(=O)c1ccccc1Nc1ccc2c(/C=C/c3ccccn3)n[nH]c2c1 | -1% | 7%
O=C(NCCCN(CCO)CCO)c1ccccc1Nc1ccc2c(/C=C/c3ccccn3)n[nH]c2c1 | 4% | 4%
CN(C)CCCCCCNC(=O)c1ccccc1Nc1ccc2c(/C=C/c3ccccn3)n[nH]c2c1 | 22% | 42%
CN1CCN(NC(=O)c2ccccc2Nc2ccc3c(/C=C/c4ccccn4)n[nH]c3c2)CC1 | -1% | 19 to 38%
CC1(C)CC(NC(=O)c2ccccc2Nc2ccc3c(/C=C/c4ccccn4)n[nH]c3c2)C(C)(C)N1O (stereo not drawn) | 8% | 15%
O=C(NCCc1ccncc1)c1ccccc1Nc1ccc2c(/C=C/c3ccccn3)n[nH]c2c1 | 22% | 18%
Cc1ncc(CNC(=O)c2ccccc2Nc2ccc3c(/C=C/c4ccccn4)n[nH]c3c2)c(N)n1 | 17% | 16%
NC(=O)C[C@@H](NC(=O)c1ccccc1Nc1ccc2c(/C=C/c3ccccn3)n[nH]c2c1)C(N)=O | 15% | 21%
O=C(NCCN1CCCCC1)c1ccccc1Nc1ccc2c(/C=C/c3ccccn3)n[nH]c2c1 | 19% | 5%
NC(=O)CCNC(=O)c1ccccc1Nc1ccc2c(/C=C/c3ccccn3)n[nH]c2c1 | 18% | 8%
CCCCN(CCCC)CCCNC(=O)c1ccccc1Nc1ccc2c(/C=C/c3ccccn3)n[nH]c2c1 | 10% | 32%

SMILES | inhibition at 0.002 µM [1] | inhibition at 0.0005 µM [2]
CC(C)CNC(=O)c1ccccc1Nc1ccc2c(/C=C/c3ccccn3)n[nH]c2c1 | 29 to 36% | 4 to 31%
C=CCNC(=O)c1ccccc1Nc1ccc2c(/C=C/c3ccccn3)n[nH]c2c1 | 86% | 30%
CC(C)(CO)CNC(=O)c1ccccc1Nc1ccc2c(/C=C/c3ccccn3)n[nH]c2c1 | 22% | 8%
CCCCC(CC)CNC(=O)c1ccccc1Nc1ccc2c(/C=C/c3ccccn3)n[nH]c2c1 (stereo not drawn) | 47% | 28%
O=C(NCCCN1CCOCC1)c1ccccc1Nc1ccc2c(/C=C/c3ccccn3)n[nH]c2c1 | 14% | 5%
O=C(NCC(F)(F)F)c1ccccc1Nc1ccc2c(/C=C/c3ccccn3)n[nH]c2c1 | 61 to 95% | 34 to 53%
O=C(NCCCN1CCCCC1)c1ccccc1Nc1ccc2c(/C=C/c3ccccn3)n[nH]c2c1 | 7% | 16%
O=C(NNCCO)c1ccccc1Nc1ccc2c(/C=C/c3ccccn3)n[nH]c2c1 | 18% | 33%
CC(O)CNC(=O)c1ccccc1Nc1ccc2c(/C=C/c3ccccn3)n[nH]c2c1 (stereo not drawn) | 2% | 38%
CONC(=O)c1ccccc1Nc1ccc2c(/C=C/c3ccccn3)n[nH]c2c1 | 99% | 62%
CC1CCCCN1CCCNC(=O)c1ccccc1Nc1ccc2c(/C=C/c3ccccn3)n[nH]c2c1 (stereo not drawn) | 15% | 25%
O=C(N[C@@H]1CCCC[C@@H]1O)c1ccccc1Nc1ccc2c(/C=C/c3ccccn3)n[nH]c2c1 | 59% | 26%
Cn1cncc1CCNC(=O)c1ccccc1Nc1ccc2c(/C=C/c3ccccn3)n[nH]c2c1 | 0% | -6%
Cc1cc(C(=O)NNC(=O)c2ccccc2Nc2ccc3c(/C=C/c4ccccn4)n[nH]c3c2)[nH]n1 | 39% | 26%
C[N+]12CC[C@@H]1C(NC(=O)c1ccccc1Nc1ccc3c(/C=C/c4ccccn4)n[nH]c3c1)C2 (stereo partly drawn) | -9% | 15%
CCNC(=O)c1ccccc1Nc1ccc2c(/C=C/c3ccccn3)n[nH]c2c1 | 17% | 16%
CCN(CC)CCNC(=O)c1ccccc1Nc1ccc2c(/C=C/c3ccccn3)n[nH]c2c1 | 15% | 39%
CC(C)(C(=O)NNC(=O)c1ccccc1Nc1ccc2c(/C=C/c3ccccn3)n[nH]c2c1)n1cncn1 | 90% | 34%
O=C(NNC(=O)c1ccccc1Nc1ccc2c(/C=C/c3ccccn3)n[nH]c2c1)c1ccco1 | 71% | 26%
O=C(NNc1ccccn1)c1ccccc1Nc1ccc2c(/C=C/c3ccccn3)n[nH]c2c1 | 35 to 92% | 19 to 32%
O=C(NCCCCc1ccccc1)c1ccccc1Nc1ccc2c(/C=C/c3ccccn3)n[nH]c2c1 | 67% | 51%
O=C(NCP(=O)(O)O)c1ccccc1Nc1ccc2c(/C=C/c3ccccn3)n[nH]c2c1 | 6% | 32%
CCCCC(=O)NNC(=O)c1ccccc1Nc1ccc2c(/C=C/c3ccccn3)n[nH]c2c1 | 94% | 40%
Cc1ccc(CNC(=O)c2ccccc2Nc2ccc3c(/C=C/c4ccccn4)n[nH]c3c2)o1 | 96% | 56%
